In patent publication US11702402B2, “Small molecules that block proteasome-associated ubiquitin receptor RPN13 function and uses thereof” (DANA-FARBER CANCER INSTITUTE, INC., priority 2018, dated 2023):

Tests used:
RPN13 [1] = molecular target: T1, RPN13 (Homo sapiens, UniProt Q16186); assay: Rpn13 immunoblot in MM.1S-CRBN KO cells; assay type: cell-based; set-up: endogenous in cells; host or cells: MM.1S; MM.1S-CRBN KO; RPMI-8226; ANBL6.BR; settings: 400 nM, 16 hours, versus DMSO
Description: FIGS. 19A-19I show the exemplary design and characterization of exemplary Rpn13 degrader WL40. […] WL40 was created by linking the Rpn13 inhibitor RA190 to the IMiD thalidomide as a ligand for the CRBN E3 ligase via a PEG linker. […] FIG. 19C is a schematic cartoon for the novel AlphaScreen assay to measure the binding activity of inhibitor with RPN13 proteins. […] FIG. 19E depicts immunoblot analysis of multiple myeloma 1S (MM.1S) cells, which were treated with WL40 or RA190 at the indicated concentrations and time periods; protein lysates were subjected to the immunoblot analysis using anti-Rpn13 or anti-tubulin Abs. FIG. 19F depicts flow cytometry analysis of MM.1S cells, which were treated with DMSO control, WL40 (400 nM), or RA190 (500 nM) for 16 hours; cells were then washed and stained with Rpn13 Ab conjugated with AlexaFluor-647, followed by the flow cytometry analysis. Isotype Ab conjugated to AlexaFluor-647 was used as control for non-specific binding. Data was quantified using FACS Diva (BD Biosciences, USA) and FlowJo (FlowJo LLC, USA). […]
To confirm that CRBN presence is a prerequisite for the function of WL40 in cells, CRBN-knockout (KO) MM.1S cells^27, 38 were utilized, and the effect of WL40 on Rpn13 degradation was examined. […] GFPu-1 cells were treated with WL40, and GFP levels were then analyzed using immunoblotting. […]

20S proteasome = assay: Proteasome activity assay in lysates of treated MM.1S cells; assay type: cell-based, Human; settings: cellular extracts of MM.1S cells treated 1 μM or 10 μM for 3 hours
Description: (§1) MM.1S cells, which were treated with DMSO control, bortezomib, or WL40 at indicated concentration for 3 hours; protein lysates were analyzed for different proteasome activities (CT-L, chymotrypsin-like; T-L, trypsin-like; C-L, caspase-like). FIG. 20B is a bar graph showing percent proteasome activity after normalization with DMSO control (mean±SD; n=3). Recombinant 20S proteasome was incubated with DMSO, bortezomib, or WL40 for 30 minutes, followed by assessment of the above-noted proteasome activities. FIG. 20C MM.1S cells were pretreated with exemplary proteasome inhibitor MG132 (10 μM) for 1 hour, followed by addition of WL40 (400 nM) for 8 hours. […] Total protein lysates were subjected to immunoblots for Rpn13 and α-tubulin. […] FIG. 20E ANBL6.BR cells were treated with WL40 (400 nM) or RA190 (500 nM) for 16 hours; protein lysates were subjected to immunoblot analysis using anti-Rpn13 or anti-β-actin Abs.
MM.1S cells were treated with WL40 (1 μM or 10 μM) or Bortezomib (1 μM) for 3 hours; cells were then harvested and lysed in lysis buffer, followed by removal of debris by centrifugation. Total protein (25 μg) was analyzed for proteasome activity using 20S proteasome Assay Kit (Calbiochem), as previously described.^33

[2] = system: MM.1S cells co-cultured with patient pDCs; assay: MM.1S co-culture with patient pDCs (WST); assay type: cell-based, Human; settings: 48 hours
Description: (§2) The IC50 of WL40 for cell lines is shown.

[3] = system: MM.1S cells co-cultured with patient BMSCs; assay: MM.1S co-culture with patient BMSCs (WST); assay type: cell-based, Human; settings: 48 hours
Description: as §2

[4] = system: p53/p21 apoptotic signaling axis; assay: p53/p21 signaling immunoblot; assay type: cell-based, Human; settings: ANBL6.BR; WL40 (1 μM) versus RA190 (1 μM)
RPN13 [5] = molecular target: T1, RPN13; assay: Rpn13 immunoblot in RPMI-8226 cells; assay type: cell-based; set-up: endogenous in cells; host or cells: MM.1S; MM.1S-CRBN KO; RPMI-8226; ANBL6.BR; settings: RPMI-8226 (p53-mutated); 400 nM; 16 hours
Description: as §1
Cellular protein extracts were prepared using RIPA lysis buffer (50 mM Tris-HCl, 150 mM NaCl, 1% NP-40, 0.5% sodium deoxycholate, and 0.1% SDS). […]
Next, the effect of WL40 on additional MM cell lines, including p53-mutated RPMI-8226 cells or bortezomib-resistant ANBL6.BR cells, was evaluated. […]

INA6 MM cells = assay: INA6 cell viability; assay type: cell-based, Human; settings: IL-6-dependent INA6; 48 hours
Description: as §2

T1 sequence (Q16186 whole entry): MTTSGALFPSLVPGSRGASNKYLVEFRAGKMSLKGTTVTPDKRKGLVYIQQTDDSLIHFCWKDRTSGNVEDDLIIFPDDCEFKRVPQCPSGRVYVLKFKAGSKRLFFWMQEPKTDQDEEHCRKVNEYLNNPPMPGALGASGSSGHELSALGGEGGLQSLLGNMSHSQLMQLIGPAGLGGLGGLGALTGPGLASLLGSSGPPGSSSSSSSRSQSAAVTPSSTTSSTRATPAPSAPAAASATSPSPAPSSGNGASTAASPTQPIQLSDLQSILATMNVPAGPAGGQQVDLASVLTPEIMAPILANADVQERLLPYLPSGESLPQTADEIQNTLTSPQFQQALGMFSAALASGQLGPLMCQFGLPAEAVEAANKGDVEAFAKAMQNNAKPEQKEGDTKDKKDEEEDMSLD

## O=C1CCC(N2C(=O)c3cccc(NCCOCCOCCOCCC(=O)N[C@@H](Cc4ccccc4)C(=O)N4C/C(=C\c5ccc(Cl)c(Cl)c5)C(=O)/C(=C/c5ccc(Cl)c(Cl)c5)C4)c3C2=O)C(=O)N1 (stereo partly shown) [WL40]
RPN13 [1]
  Rpn13 levels (immunoblot): no decrease in Rpn13 levels
20S proteasome
  20S proteasomal activities (chymotrypsin-like, trypsin-like, caspase-like): does not inhibit 20S proteasomal activities
[2]
  viability of MM cells in co-culture: dose-dependent decrease in the viability of MM cells
[3]
  viability of MM cells in co-culture: dose-dependent decrease in the viability of MM cells
[4]
  induction of p53/p21 signaling: earlier induction of this pathway
RPN13 [5]
  Rpn13 levels (immunoblot): induced RPN13 degradation
INA6 MM cells
  cytotoxic activity (cell viability): cytotoxic activity
